The record followed here is ChEMBL document CHEMBL5046275 (J Med Chem, 2022).

Data set [1] can be described thus: Metabolic stability in Sprague-Dawley rat hepatocytes assessed as intrinsic clearance at 1 uM measured up to 120 mins by LC-MS/MS analysis. The format is ADME, cell-based, Hepatocyte. Particulars: read-out: CLH.
Data set [2] can be described thus: Clearance in Sprague-Dawley rat at 1 mg/kg, iv measured upto 24 hrs by LC-MS/MS analysis. The format is ADME, organism-based. The conditions noted are these: in vivo.
The target of data set [3] is T1, Cyclin-dependent kinase 5/CDK5 activator 1 (Homo sapiens, UniProt Q00535). Description: Inhibition of Nano-Luc fused human full length CDK5/P35 transfected in HEK293 cells incubated for 1 hr by NanoBRET assay. It counts as cell-based. (In general: Bioluminescence resonance energy transfer reports proximity on the nanometre scale.)
T1 sequence (Q00535 whole entry, the tested form may be a part): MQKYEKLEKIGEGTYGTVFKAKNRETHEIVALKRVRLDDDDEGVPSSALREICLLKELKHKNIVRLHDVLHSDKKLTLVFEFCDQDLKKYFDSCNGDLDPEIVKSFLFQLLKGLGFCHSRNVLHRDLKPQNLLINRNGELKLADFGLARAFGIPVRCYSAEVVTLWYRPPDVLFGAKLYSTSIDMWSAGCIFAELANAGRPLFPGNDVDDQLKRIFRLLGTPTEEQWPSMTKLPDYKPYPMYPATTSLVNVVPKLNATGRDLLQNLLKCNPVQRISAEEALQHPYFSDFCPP
T1 sequence (Q15078 whole entry, further chain, the tested form may be a part): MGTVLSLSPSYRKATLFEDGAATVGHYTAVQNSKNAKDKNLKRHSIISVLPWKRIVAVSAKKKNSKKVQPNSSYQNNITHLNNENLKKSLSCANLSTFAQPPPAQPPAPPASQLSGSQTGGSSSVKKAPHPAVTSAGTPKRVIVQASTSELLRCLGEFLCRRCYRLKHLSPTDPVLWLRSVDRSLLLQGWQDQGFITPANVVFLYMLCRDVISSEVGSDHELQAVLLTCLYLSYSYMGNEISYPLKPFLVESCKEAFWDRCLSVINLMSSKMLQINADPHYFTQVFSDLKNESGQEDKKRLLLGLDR
The target of a further data set is CDK7/Cyclin H/MNAT1 (Homo sapiens, UniProt P50613). Description: Inhibition of full length N-terminal GST fused human CDK7 (1 to 346 residues)/CyclinH (1 to 323 residues)/ MAT1 (1 to 309 residues) expressed in baculovirus expression system using FL peptide as substrate preincubated for 30 mins followed by substrate addition and further incubated for 90 mins by EZ reader method.
Sequence of CDK7/Cyclin H/MNAT1 (P51946 whole entry, the tested form may be a part): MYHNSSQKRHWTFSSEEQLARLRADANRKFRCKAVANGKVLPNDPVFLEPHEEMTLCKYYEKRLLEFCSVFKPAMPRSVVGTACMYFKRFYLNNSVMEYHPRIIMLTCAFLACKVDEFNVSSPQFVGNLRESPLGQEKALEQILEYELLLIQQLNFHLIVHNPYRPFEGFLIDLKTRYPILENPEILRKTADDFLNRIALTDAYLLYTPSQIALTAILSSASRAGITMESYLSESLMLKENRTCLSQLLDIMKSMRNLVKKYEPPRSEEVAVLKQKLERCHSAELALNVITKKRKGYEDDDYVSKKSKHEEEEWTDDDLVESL
Sequence of CDK7/Cyclin H/MNAT1 (P50613 whole entry, the tested form may be a part): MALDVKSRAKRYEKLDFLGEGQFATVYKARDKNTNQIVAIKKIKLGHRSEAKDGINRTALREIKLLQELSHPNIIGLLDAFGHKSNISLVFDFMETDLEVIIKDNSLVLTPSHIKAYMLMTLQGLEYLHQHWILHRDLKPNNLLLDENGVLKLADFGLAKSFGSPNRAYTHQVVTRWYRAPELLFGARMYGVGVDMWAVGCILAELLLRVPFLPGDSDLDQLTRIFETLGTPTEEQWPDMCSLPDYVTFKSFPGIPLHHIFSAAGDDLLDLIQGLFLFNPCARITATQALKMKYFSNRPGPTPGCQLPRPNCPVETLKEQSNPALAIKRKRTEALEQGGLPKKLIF
Sequence of CDK7/Cyclin H/MNAT1 (P51948 whole entry, further chain, the tested form may be a part): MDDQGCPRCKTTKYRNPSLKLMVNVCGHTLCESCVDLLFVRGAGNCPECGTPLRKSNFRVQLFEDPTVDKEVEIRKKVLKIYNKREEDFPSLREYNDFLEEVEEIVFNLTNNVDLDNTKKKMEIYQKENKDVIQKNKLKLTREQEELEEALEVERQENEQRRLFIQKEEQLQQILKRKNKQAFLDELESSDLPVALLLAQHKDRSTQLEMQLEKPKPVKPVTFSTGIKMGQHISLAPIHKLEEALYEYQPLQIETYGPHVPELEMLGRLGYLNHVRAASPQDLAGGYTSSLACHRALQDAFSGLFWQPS

A further data set concerns HEK-293T. Briefly: Antiproliferative activity against human HEK293T cells assessed as cell growth inhibition incubated for 48 hrs. The format is functional, cell-based.
The nature of data set [4]: Cmax in Sprague-Dawley rat at 3 mg/kg, po measured upto 24 hrs by LC-MS/MS analysis. The format is ADME, organism-based. More on the design: route oral, dose 3 mg/kg, time <=24. Particulars: in vivo.
Data set [5] has as its target T1, Cyclin-dependent kinase 5/CDK5 activator 1. Briefly: Inhibition of full length N-terminal GST fused human CDK5(1 to 292 residues)/ p25 (99 to 307 residues) expressed in baculovirus expression system using FL peptide as substrate preincubated for 30 mins followed by substrate addition further incubated for 60 mins by EZ reader method.
The nature of data set [6]: AUC (0 to 24 hrs) in Sprague-Dawley rat at 3 mg/kg, po measured upto 24 hrs by LC-MS/MS analysis. It counts as ADME, organism-based. Also noted: route oral, dose 3 mg/kg, time <=24. Particulars: in vivo.
Data set [7] can be described thus: Metabolic stability in CD-1 mouse hepatocytes assessed as intrinsic clearance at 1 uM measured up to 120 mins by LC-MS/MS analysis. It counts as ADME, cell-based, Hepatocyte. Particulars: read-out: CLH.
Another data set has as its target CDK2/Cyclin A2 (Homo sapiens, UniProt P24941). Briefly: Inhibition of full length N-terminal GST tagged human CDK2(1 to 298 residues)/CyclinA2 (1 to 432 residues) expressed in baculovirus expression system using FL peptide as substrate preincubated for 30 mins followed by substrate addition further incubated for 120 mins by EZ reader method.
The next data set deals with P-gp. Description: Substrate activity at P-gp in dog MDCKII-MDR1 cells assessed as efflux ratio of permeability at 1 uM incubated for 120 mins. The conditions noted are these: MDCK-MDR1. The format is ADME, cell-based, Canis lupus familiaris.
Another data set deals with CDK6/cyclin D3 (Homo sapiens, UniProt Q00534). Description: Inhibition of full length N-terminal GST fused human CDK6 (1 to 326 residues)/CyclinD3 (1 to 292 residues) expressed in baculovirus expression system using FL peptide as substrate preincubated for 30 mins followed by substrate addition and further incubated for 120 mins by EZ reader method.
Sequence of CDK6/cyclin D3 (P30281 whole entry, the tested form may be a part): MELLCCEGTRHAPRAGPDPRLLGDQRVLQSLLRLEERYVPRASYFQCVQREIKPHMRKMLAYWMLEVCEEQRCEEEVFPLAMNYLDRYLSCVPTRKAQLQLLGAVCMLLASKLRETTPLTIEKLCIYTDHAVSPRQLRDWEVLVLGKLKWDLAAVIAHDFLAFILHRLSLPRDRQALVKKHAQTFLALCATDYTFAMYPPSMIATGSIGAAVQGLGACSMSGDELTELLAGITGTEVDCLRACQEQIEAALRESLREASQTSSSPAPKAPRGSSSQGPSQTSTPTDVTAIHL
Sequence of CDK6/cyclin D3 (Q00534 whole entry, the tested form may be a part): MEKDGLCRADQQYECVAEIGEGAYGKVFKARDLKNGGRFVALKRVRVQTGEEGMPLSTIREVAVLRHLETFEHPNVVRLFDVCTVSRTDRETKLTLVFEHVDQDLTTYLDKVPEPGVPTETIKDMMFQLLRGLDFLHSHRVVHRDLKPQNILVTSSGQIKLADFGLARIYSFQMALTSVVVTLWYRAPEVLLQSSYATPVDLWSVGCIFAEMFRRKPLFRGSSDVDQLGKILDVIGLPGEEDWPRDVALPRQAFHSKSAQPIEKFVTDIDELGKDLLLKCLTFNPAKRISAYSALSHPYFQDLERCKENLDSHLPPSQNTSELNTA
A short description of data set [8]: AUC (0 to 24 hrs) in Sprague-Dawley rat at 1 mg/kg, iv measured upto 24 hrs by LC-MS/MS analysis. The format is ADME, organism-based. More on the design: route intravenous, dose 1 mg/kg, time <=24. Particulars: in vivo.
A short description of data set [9]: Volume of distribution at steady state in Sprague-Dawley rat at 1 mg/kg, iv measured upto 24 hrs by LC-MS/MS analysis. The format is ADME, organism-based. The conditions noted are these: in vivo, read-out: Vdss.
The nature of data set [10]: Plasma protein binding in Sprague-Dawley rat at 1 uM incubated for 6 hrs by equilibrium dialysis based LC-MS/MS analysis. The conditions noted are these: read-out: PPB (converted). The format is ADME, cell-free. Background: Equilibrium dialysis compares concentrations on both sides of a semipermeable membrane.
The nature of data set [11]: Metabolic stability human hepatocytes assessed as intrinsic clearance at 1 uM measured up to 120 mins by LC-MS/MS analysis. It counts as ADME, cell-based, Hepatocyte. Particulars: read-out: CLH.
The target of a further data set is CDK9/cyclin T1 (Homo sapiens, UniProt P50750). Description: Inhibition of full length N-terminal GST fused human CDK9(1 to 372 residues)/ His- tagged CyclinT1 (1 to 726 residues) expressed in baculovirus expression system using FL peptide as substrate preincubated for 30 mins followed by substrate addition and further incubated for 90 mins by EZ reader method.
Sequence of CDK9/cyclin T1 (O60563 whole entry, the tested form may be a part): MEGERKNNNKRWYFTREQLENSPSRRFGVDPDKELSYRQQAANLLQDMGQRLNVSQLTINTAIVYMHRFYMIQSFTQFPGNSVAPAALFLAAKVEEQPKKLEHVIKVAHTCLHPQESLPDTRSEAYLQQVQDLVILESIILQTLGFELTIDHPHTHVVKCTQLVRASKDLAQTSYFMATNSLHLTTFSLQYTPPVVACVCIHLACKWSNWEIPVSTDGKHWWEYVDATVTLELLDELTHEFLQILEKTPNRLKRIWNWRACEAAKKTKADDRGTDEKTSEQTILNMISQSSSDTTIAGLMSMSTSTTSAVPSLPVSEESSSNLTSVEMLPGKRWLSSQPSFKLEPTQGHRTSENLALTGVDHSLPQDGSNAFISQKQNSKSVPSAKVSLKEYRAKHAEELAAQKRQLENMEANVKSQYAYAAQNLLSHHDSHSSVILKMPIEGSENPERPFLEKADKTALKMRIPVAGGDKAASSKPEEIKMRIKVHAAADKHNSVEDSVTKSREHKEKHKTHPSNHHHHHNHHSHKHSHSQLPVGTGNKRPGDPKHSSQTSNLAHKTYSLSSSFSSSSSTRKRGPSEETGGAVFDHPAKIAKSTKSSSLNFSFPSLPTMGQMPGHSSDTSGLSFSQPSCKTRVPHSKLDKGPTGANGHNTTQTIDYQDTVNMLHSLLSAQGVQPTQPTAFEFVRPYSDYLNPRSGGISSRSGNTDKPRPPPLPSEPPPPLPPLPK
Sequence of CDK9/cyclin T1 (P50750 whole entry, the tested form may be a part): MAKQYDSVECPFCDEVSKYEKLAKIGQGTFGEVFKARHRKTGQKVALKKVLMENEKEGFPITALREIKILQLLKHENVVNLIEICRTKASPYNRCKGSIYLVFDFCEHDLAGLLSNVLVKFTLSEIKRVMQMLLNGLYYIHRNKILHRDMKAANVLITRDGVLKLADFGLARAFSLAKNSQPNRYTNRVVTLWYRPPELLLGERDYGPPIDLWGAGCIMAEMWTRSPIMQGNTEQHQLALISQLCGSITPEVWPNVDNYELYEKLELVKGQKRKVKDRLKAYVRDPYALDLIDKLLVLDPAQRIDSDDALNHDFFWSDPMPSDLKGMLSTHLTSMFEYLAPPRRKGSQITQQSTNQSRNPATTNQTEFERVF

For data set [12], the species on record is Homo sapiens. Briefly: Selectivity ratio of IC50 for inhibition of full length N-terminal GST tagged human CDK2(1 to 298 residues)/CyclinA2 (1 to 432 residues) to IC50 for inhibition of full length N-terminal GST fused human CDK5(1 to 292 residues)/ p25 (99 to 307 residues).
A short description of data set [13]: Oral bioavailability in Sprague-Dawley rat at 3 mg/kg measured upto 24 hrs by LC-MS/MS analysis. It counts as ADME, organism-based. Particulars: in vivo.
A short description of data set [14]: Half life in Sprague-Dawley rat at 1 mg/kg, iv measured upto 24 hrs by LC-MS/MS analysis. It counts as ADME, organism-based. Particulars: in vivo.
The nature of data set [15]: Kinetic aqueous solubility of compound in PBS at pH 7.4 incubated for 2 hrs by LC-MS/MS analysis. Particulars: read-out: Kinetic_solubility. The format is physicochemical.
A short description of data set [16]: Apparent permeability across apical to basolateral side in dog MDCKII-MDR1 cells at 1 uM incubated for 120 mins. It counts as ADME, cell-based, Canis lupus familiaris. The conditions noted are these: MDCK-MDR1.
The species named for data set [17] is Homo sapiens. Briefly: Selectivity ratio of IC50 for human CDK9 to IC50 for human CDK5.
Data set [18] is described as follows: Cmax in Sprague-Dawley rat at 10 mg/kg, po measured upto 24 hrs by LC-MS/MS analysis. It counts as ADME, organism-based. Also noted: route oral, dose 10 mg/kg, time <=24. Particulars: in vivo.
For data set [19], the species on record is Homo sapiens. Description: Selectivity ratio of IC50 for human CDK7 to IC50 for human CDK5.
Data set [20] can be described thus: AUC (0 to 24 hrs) in Sprague-Dawley rat at 10 mg/kg, po measured upto 24 hrs by LC-MS/MS analysis. The format is ADME, organism-based. Also noted: route oral, dose 10 mg/kg, time <=24. The conditions noted are these: in vivo.
For data set [21], the species on record is Homo sapiens. Description: Selectivity ratio of IC50 for human CDK6 to IC50 for human CDK5.
Data set [22] in a line: Oral bioavailability in Sprague-Dawley rat at 10 mg/kg measured upto 24 hrs by LC-MS/MS analysis. The format is ADME, organism-based. The conditions noted are these: in vivo.

Each structure is given as a SMILES string. Values after ≈ are worked out from the molar mass of the structure shown.

`CN1CCC([C@@](C)(O)c2ccc3cnc(Nc4cc(N5CCOCC5)ncc4F)cc3n2)CC1`: the CLint scaled at 1 µM in [1] was less than 13 mL/min/kg; in data set [7], 69 mL/min/kg; in data set [11] it was less than 7 mL/min/kg. Besides, the clearance in [2] stood at 53 mL/min/kg. The IC50 in data set [3] is 1.2 nM; on CDK7/Cyclin H/MNAT1 it was 78 nM; in the data set with HEK-293T it was greater than 10000 nM; in [5], 3.2 nM; against CDK2/Cyclin A2 it was 301 nM; on CDK6/cyclin D3, 125 nM. This compound returned an IC50 at CDK9/cyclin T1 of 154 nM. The same compound showed a Cmax in [4] of 19 ng/mL. Also, the AUC(0-t) in data set [6] amounted to 143 ng·h/mL; in data set [8], 305 ng·h/mL. Moreover, in the data set on P-gp, the efflux ratio at 2 h, 1 µM worked out at 38. Besides, the Vd in data set [9] worked out at 9.4 L/kg. Besides, the fraction unbound at 6 h, 1 µM in data set [10] was 0.53. For the same compound, in the data set listed under Homo sapiens [12], the Ratio IC50 was determined as 94. In addition, the bioavailability in data set [13] is 16%. In [14], this compound had a half-life of 2.7 h. Moreover, the solubility kinetic at 2 h in data set [15] amounted to 274 µM (≈ 128 µg/mL). Also, the Papp A→B at 2 h, 1 µM in [16] stood at 7.9 ×10⁻⁶ cm/s.
As for `CN1CCC([C@@](C)(O)c2ccc3cnc(Nc4cc(C(F)(F)F)ncc4F)cc3n2)CC1`, the CLint scaled at 1 µM came to 17 mL/min/kg in [1], 89 mL/min/kg in data set [7] and 13 mL/min/kg in data set [11]. In addition, the Ratio IC50 in the data set filed under Homo sapiens [17] was found to be 389; in the data set filed under Homo sapiens [19], 312; in the data set listed under Homo sapiens [12], 92; in the data set listed under Homo sapiens [21], 1390. The clearance in data set [2] is 12 mL/min/kg. The Cmax in [18] came out at 350 ng/mL; in data set [4], 83 ng/mL. The IC50 at CDK7/Cyclin H/MNAT1 was 718 nM; in [5], 2.3 nM; against CDK2/Cyclin A2, 211 nM; against CDK6/cyclin D3, 3200 nM; at CDK9/cyclin T1, 894 nM. Also, the AUC(0-t) in data set [6] turned out to be 999 ng·h/mL; in [8], 1300 ng·h/mL; in [20] it was 5320 ng·h/mL. For the same compound, in the data set on P-gp, the efflux ratio at 2 h, 1 µM came out at 9. Moreover, the Vd in data set [9] was 7.3 L/kg. In addition, in [10], the fraction unbound at 6 h, 1 µM is 0.37. For the same compound, the results for the bioavailability in data set [22] and in data set [13] were 41% and 25%, respectively. Moreover, the half-life in [14] was 7.6 h. Moreover, in data set [15], the solubility kinetic at 2 h amounted to 259 µM (≈ 116 µg/mL). The Papp A→B at 2 h, 1 µM in [16] was determined as 18 ×10⁻⁶ cm/s.
For the compound `CN1CCC([C@@](C)(O)c2ccc3cnc(Nc4cc(N5CCOCC5)ccc4F)cc3n2)CC1`, the Ratio IC50 was determined as 77 in the data set listed under Homo sapiens [17], 41 in the data set filed under Homo sapiens [19], 108 in the data set filed under Homo sapiens [12] and 136 in the data set filed under Homo sapiens [21]. Further, the IC50 in data set [3] amounted to 0.2 nM; at CDK7/Cyclin H/MNAT1, 73 nM; in the data set with HEK-293T it was 6400 nM; in data set [5], 1.8 nM; on CDK2/Cyclin A2, 194 nM; against CDK6/cyclin D3 it was 245 nM. This compound came in with an IC50 against CDK9/cyclin T1 of 138 nM.

As usually defined, the clearance is the rate of elimination divided by the concentration. High values mean a high capacity for elimination, low ones a low capacity for elimination. Broadly, the IC50 is the concentration that gives 50% inhibition. In general, Cmax refers to the peak of the concentration-time curve. The AUC(0-t) is exposure summed from dosing to a finite time, without extrapolation to infinity. For orientation: efflux ratio means the permeability from basolateral to apical divided by that in the opposite direction, in the common usage. What is called bioavailability is dose-corrected exposure relative to a reference, in per cent. Usually half-life stands for how long it takes for the measured level to halve. The low end stands for fast loss, the high end for slow loss. As a reminder, the Papp A→B is the apparent permeability from the apical to the basolateral side of a cell layer.
